pEC50: −log10 of the molar value. Counter-ions that a name gives are not always drawn.
Tested on: progranulin (PGRN)
Test: progranulin induction cellular assay (PGRN assay), ELISA-based readout
Conditions: PGRN assay as described: mouse primary microglia, primary cortical neurons and BV-2 cell lines; secreted mouse PGRN in medium by ELISA; cell type for Table B not specified
Method: Cellular Assays: To measure the efficacy of compounds, a progranulin induction cellular assay in mouse primary microglia (pMG), primary cortical neurons, and BV-2 cell lines is used. BV-2 cells are split the day before plating into a 96 well plate format at approximately 80%. Cells should be plated the day before and allowed for 1 hour attachment period and for 16 hour incubation. Levels of progranulin secreted into the cell culture medium or retained in the cell lysate can be quantified using an ELISA-based readout and measurement of secreted mouse PGRN in the medium was assessed by the methodology published by Ghidoni et al. 2012. Standard ELISA kits to measure PGRN are available from vendors such as Adipogen, R&D, and Biovendor.
Table B below presents the results of a PGRN assay as described above.

Compound | pEC50
CS(=O)(=O)NC12CC(NC(=O)N3CCc4ccccc4[C@@H]3c3ccc(F)cc3)(C1)C2 [Compound 4017, (S)-1-(4-fluorophenyl)-N-(3-(methylsulfonamido)bicyclo[1.1.1]pentan-1-yl)-3,4-dihydroisoquinoline-2(1H)-carboxamide] | < 5.00
CS(=O)(=O)NC12CC(OC(=O)N3CCc4ccccc4[C@@H]3c3ccc(F)cc3)(C1)C2 [Compound 4018, 3-(Methylsulfonamido)bicyclo[1.1.1]pentan-1-yl (S)-1-(4-fluorophenyl)-3,4-dihydroisoquinoline-2(1H)-carboxylate] | < 5.00
O=C(NC12CC(NC(=O)C(F)(F)F)(C1)C2)N1CCc2ccccc2[C@@H]1c1ccc(F)cc1 [Compound 4019] | 5.63
O=C(NC12CC(NS(=O)(=O)C(F)(F)F)(C1)C2)N1CCc2ccccc2[C@@H]1c1ccc(F)cc1 [Compound 4020, (S)-1-(4-fluorophenyl)-N-(3-((trifluoromethyl)sulfonamido)bicyclo[1.1.1]pentan-1-yl)-3,4-dihydroisoquinoline-2(1H)-carboxamide] | 5.48
O=C(NC12CC(N3CCS(=O)(=O)CC3)(C1)C2)N1CCc2ccccc2[C@@H]1c1ccc(F)cc1 [Compound 4021, (S)—N-(3-(1,1-dioxidothiomorpholino)bicyclo[1.1.1]pentan-1-yl)-1-(4-fluorophenyl)-3,4-dihydroisoquinoline-2(1H)-carboxamide] | < 5.00
CN(C)C12CC(NC(=O)N3CCc4ccccc4[C@@H]3c3ccc(F)cc3)(C1)C2 [Compound 4022, (S)—N-(3-(dimethylamino)bicyclo[1.1.1]pentan-1-yl)-1-(4-fluorophenyl)-3,4-dihydroisoquinoline-2(1H)-carboxamide] | 5.27
O=C(NC12CC(NCC(F)(F)F)(C1)C2)N1CCc2ccccc2[C@@H]1c1ccc(F)cc1 [Compound 4023, (S)-1-(4-fluorophenyl)-N-(3-((2,2,2-trifluoroethyl)amino)bicyclo[1.1.1]pentan-1-yl)-3,4-dihydroisoquinoline-2(1H)-carboxamide] | < 5.00
O=C(NC12CC(N3CCCC3=O)(C1)C2)N1CCc2ccccc2[C@@H]1c1ccc(F)cc1 [Compound 4024, (S)-1-(4-fluorophenyl)-N-(3-(2-oxopyrrolidin-1-yl)bicyclo[1.1.1]pentan-1-yl)-3,4-dihydroisoquinoline-2(1H)-carboxamide] | < 5.00
O=C(OC12CC(N3CCCC3=O)(C1)C2)N1CCc2ccccc2[C@@H]1c1ccc(F)cc1 [Compound 4025, 3-(2-Oxopyrrolidin-1-yl)bicyclo[1.1.1]pentan-1-yl (S)-1-(4-fluorophenyl)-3,4-dihydroisoquinoline-2(1H)-carboxylate] | < 5.00
CNC12CC(OC(=O)N3CCc4ccccc4[C@@H]3c3ccc(F)cc3)(C1)C2 [Compound 4026, 3-(Methylamino)bicyclo[1.1.1]pentan-1-yl (S)-1-(4-fluorophenyl)-3,4-dihydroisoquinoline-2(1H)-carboxylate hydrochloride] | 6.07
CS(=O)(=O)CCNC12CC(OC(=O)N3CCc4ccccc4[C@@H]3c3ccc(F)cc3)(C1)C2 [Compound 4027, 3-((2-(Methylsulfonyl)ethyl)amino)bicyclo[1.1.1]pentan-1-yl (S)-1-(4-fluorophenyl)-3,4-dihydroisoquinoline-2(1H)-carboxylate hydrochloride] | 5.97
N[C@H]1C[C@@H](CNC(=O)N2CCc3ccccc3[C@@H]2c2ccc(F)cc2)C1 [Compound 4028, Cis-(S)—N-((3-aminocyclobutyl)methyl)-1-(4-fluorophenyl)-3,4-dihydroisoquinoline-2(1H)-carboxamide] | 5.63
N[C@H]1C[C@H](CNC(=O)N2CCc3ccccc3[C@@H]2c2ccc(F)cc2)C1 [Compound 4029, Trans-(S)—N-((3-aminocyclobutyl)methyl)-1-(4-fluorophenyl)-3,4-dihydroisoquinoline-2(1H)-carboxamide] | 5.47
NC[C@H]1C[C@@H](OC(=O)N2CCc3ccccc3[C@@H]2c2ccc(F)cc2)C1 [Compound 4030, Cis-3-(aminomethyl)cyclobutyl (S)-1-(4-fluorophenyl)-3,4-dihydroisoquinoline-2(1H)-carboxylate] | 5.02
NC[C@H]1C[C@H](OC(=O)N2CCc3ccccc3[C@@H]2c2ccc(F)cc2)C1 [Compound 4031, Trans-3-(aminomethyl)cyclobutyl (S)-1-(4-fluorophenyl)-3,4-dihydroisoquinoline-2(1H)-carboxylate] | < 5.00
NC[C@H]1C[C@@H](NC(=O)N2CCc3ccccc3[C@@H]2c2ccc(F)cc2)C1 [Compound 4032, (S)—N-(cis-3-(aminomethyl)cyclobutyl)-1-(4-fluorophenyl)-3,4-dihydroisoquinoline-2(1H)-carboxamide] | < 5.00

Compound | pEC50
NC1(COC(=O)N2CCc3ccccc3[C@@H]2c2ccc(F)cc2)CC1 [Compound 4033, (1-Aminocyclopropyl)methyl (S)-1-(4-fluorophenyl)-3,4-dihydroisoquinoline-2(1H)-carboxylate hydrochloride] | 6.49
N[C@H]1C[C@@H](NC(=O)N2CCc3ccccc3[C@@H]2c2ccc(F)cc2)C1 [Compound 4034, (S)—N-(cis-3-aminocyclobutyl)-1-(4-fluorophenyl)-3,4-dihydroisoquinoline-2(1H)-carboxamide] | 6.43
N[C@H]1C[C@H](NC(=O)N2CCc3ccccc3[C@@H]2c2ccc(F)cc2)C1 [Compound 4035, (S)—N-(trans-3-aminocyclobutyl)-1-(4-fluorophenyl)-3,4-dihydroisoquinoline-2(1H)-carboxamide hydrochloride] | 6.31
N[C@H]1C[C@H](OC(=O)N2CCc3ccccc3[C@@H]2c2ccc(F)cc2)C1 [Compound 4036, Trans-3-aminocyclobutyl (S)-1-(4-fluorophenyl)-3,4-dihydroisoquinoline-2(1H)-carboxylate hydrochloride] | 5.95
C[C@]1(N)C[C@@H](NC(=O)N2CCc3ccccc3[C@@H]2c2ccc(F)cc2)C1 [Compound 4041, (S)—N-(cis-3-amino-3-methylcyclobutyl)-1-(4-fluorophenyl)-3,4-dihydroisoquinoline-2(1H)-carboxamide hydrochloride] | 6.51
C[C@]1(N)C[C@H](NC(=O)N2CCc3ccccc3[C@@H]2c2ccc(F)cc2)C1 [Compound 4042, (S)—N-(trans-3-amino-3-methylcyclobutyl)-1-(4-fluorophenyl)-3,4-dihydroisoquinoline-2(1H)-carboxamide hydrochloride] | 7.23
CN[C@H]1C[C@H](NC(=O)N2CCc3ccccc3[C@@H]2c2ccc(F)cc2)C1 [Compound 4043, (S)-1-(4-fluorophenyl)-N-(trans-3-(methylamino)cyclobutyl)-3,4-dihydroisoquinoline-2(1H)-carboxamide hydrochloride] | 6.05
CN[C@H]1C[C@H](N(C)C(=O)N2CCc3ccccc3[C@@H]2c2ccc(F)cc2)C1 [Compound 4044, (S)-1-(4-fluorophenyl)-N-methyl-N-((trans)-3-(methylamino)cyclobutyl)-3,4-dihydroisoquinoline-2(1H)-carboxamide hydrochloride] | 5.99
CN[C@H]1C[C@@H](NC(=O)N2CCc3ccccc3[C@@H]2c2ccc(F)cc2)C1 [Compound 4045, (S)-1-(4-fluorophenyl)-N-(cis-3-(methylamino)cyclobutyl)-3,4-dihydroisoquinoline-2(1H)-carboxamide hydrochloride] | 6.22
N[C@H]1C[C@@H](COC(=O)N2CCc3ccccc3[C@@H]2c2ccc(F)cc2)C1 [Compound 4046, (Cis-3-aminocyclobutyl)methyl (S)-1-(4-fluorophenyl)-3,4-dihydroisoquinoline-2(1H)-carboxylate] | 6.04
N[C@H]1C[C@H](COC(=O)N2CCc3ccccc3[C@@H]2c2ccc(F)cc2)C1 [Compound 4047, (Trans-3-aminocyclobutyl)methyl (S)-1-(4-fluorophenyl)-3,4-dihydroisoquinoline-2(1H)-carboxylate] | 5.79
CC(C)(OC(=O)N1CCc2ccccc2C1c1ccc(F)cc1)C12CC(N)(C1)C2 [Compound 4048, 2-(3-Aminobicyclo[1.1.1]pentan-1-yl)propan-2-yl (S)-1-(4-fluorophenyl)-3,4-dihydroisoquinoline-2(1H)-carboxylate] | 5.96
O=C(OC12CC(N3CCOCC3)(C1)C2)N1CCc2ccccc2[C@@H]1c1ccc(F)cc1 [Compound 4049, 3-Morpholinobicyclo[1.1.1]pentan-1-yl (S)-1-(4-fluorophenyl)-3,4-dihydroisoquinoline-2(1H)-carboxylate hydrochloride] | < 5.00
CC(C)(NC(=O)N1CCc2ccccc2C1c1ccc(F)cc1)C12CC(N)(C1)C2 [Compound 4050, (S)—N-(2-(3-aminobicyclo[1.1.1]pentan-1-yl)propan-2-yl)-1-(4-fluorophenyl)-3,4-dihydroisoquinoline-2(1H)-carboxamide hydrochloride] | < 5.00
CNC1(COC(=O)N2CCc3ccccc3[C@@H]2c2ccc(F)cc2)CC1 [Compound 4051, (1-(Methylamino)cyclopropyl)methyl (S)-1-(4-fluorophenyl)-3,4-dihydroisoquinoline-2(1H)-carboxylate hydrochloride] | 6.34
O=C(NC12CC(N3CC(F)(F)C3)(C1)C2)N1CCc2ccccc2[C@@H]1c1ccc(F)cc1 [Compound 4052, (S)—N-(3-(3,3-difluoroazetidin-1-yl)bicyclo[1.1.1]pentan-1-yl)-1-(4-fluorophenyl)-3,4-dihydroisoquinoline-2(1H)-carboxamide] | < 5.00

— patent US20230115534A1 (ARKUDA THERAPEUTICS, priority 2019, published 2023)
